Results from article PMC6213796, “Purification and Identification of Angiotensin I-Converting Enzyme Inhibitory Peptides and the Antihypertensive Effect of Chlorella sorokiniana Protein Hydrolysates” (Nutrients, 2018).
Read-outs that look alike come from different tables or passages of the source. Blank lines part the entries; values can stand above or below the molecule they belong to. Residues, ends and D or L forms follow the SMILES beside them.

Tests used:
[1] = test system: ACE; settings: cited from earlier work
[2] = test system: SHRs; settings: tube feeding, after 2 to 4 h, compared with captopril at the same dose; cited from earlier work
[3] = molecular target: angiotensin I-converting enzyme (ACE) of rabbit lung (rabbit) (UniProt P12822)
[4] = molecular target: angiotensin I-converting enzyme (ACE) of rabbit lung (rabbit) (UniProt P12822); remark: listed apart in the source
[5] = molecular target: T1, Rabbit lung ACE (Oryctolagus cuniculus, UniProt P12822); assay: In vitro assay for ACE-inhibitory activity (HHL substrate, RP-HPLC of hippuric acid); assay type: biochemical; settings: for ACE Inhibitory (%): RP-HPLC peaks of fraction F of PN-1G, at peptide content 0.01-0.03 mg/mL
T1 construct: ACE of rabbit lung, and other chemicals of analytical grade were obtained from Sigma Chemical Co; purchased Sigma Chemical Co. (St. Louis, MO, USA); host or cells: rabbit lung tissue
T1 sequence (P12822 34-1310): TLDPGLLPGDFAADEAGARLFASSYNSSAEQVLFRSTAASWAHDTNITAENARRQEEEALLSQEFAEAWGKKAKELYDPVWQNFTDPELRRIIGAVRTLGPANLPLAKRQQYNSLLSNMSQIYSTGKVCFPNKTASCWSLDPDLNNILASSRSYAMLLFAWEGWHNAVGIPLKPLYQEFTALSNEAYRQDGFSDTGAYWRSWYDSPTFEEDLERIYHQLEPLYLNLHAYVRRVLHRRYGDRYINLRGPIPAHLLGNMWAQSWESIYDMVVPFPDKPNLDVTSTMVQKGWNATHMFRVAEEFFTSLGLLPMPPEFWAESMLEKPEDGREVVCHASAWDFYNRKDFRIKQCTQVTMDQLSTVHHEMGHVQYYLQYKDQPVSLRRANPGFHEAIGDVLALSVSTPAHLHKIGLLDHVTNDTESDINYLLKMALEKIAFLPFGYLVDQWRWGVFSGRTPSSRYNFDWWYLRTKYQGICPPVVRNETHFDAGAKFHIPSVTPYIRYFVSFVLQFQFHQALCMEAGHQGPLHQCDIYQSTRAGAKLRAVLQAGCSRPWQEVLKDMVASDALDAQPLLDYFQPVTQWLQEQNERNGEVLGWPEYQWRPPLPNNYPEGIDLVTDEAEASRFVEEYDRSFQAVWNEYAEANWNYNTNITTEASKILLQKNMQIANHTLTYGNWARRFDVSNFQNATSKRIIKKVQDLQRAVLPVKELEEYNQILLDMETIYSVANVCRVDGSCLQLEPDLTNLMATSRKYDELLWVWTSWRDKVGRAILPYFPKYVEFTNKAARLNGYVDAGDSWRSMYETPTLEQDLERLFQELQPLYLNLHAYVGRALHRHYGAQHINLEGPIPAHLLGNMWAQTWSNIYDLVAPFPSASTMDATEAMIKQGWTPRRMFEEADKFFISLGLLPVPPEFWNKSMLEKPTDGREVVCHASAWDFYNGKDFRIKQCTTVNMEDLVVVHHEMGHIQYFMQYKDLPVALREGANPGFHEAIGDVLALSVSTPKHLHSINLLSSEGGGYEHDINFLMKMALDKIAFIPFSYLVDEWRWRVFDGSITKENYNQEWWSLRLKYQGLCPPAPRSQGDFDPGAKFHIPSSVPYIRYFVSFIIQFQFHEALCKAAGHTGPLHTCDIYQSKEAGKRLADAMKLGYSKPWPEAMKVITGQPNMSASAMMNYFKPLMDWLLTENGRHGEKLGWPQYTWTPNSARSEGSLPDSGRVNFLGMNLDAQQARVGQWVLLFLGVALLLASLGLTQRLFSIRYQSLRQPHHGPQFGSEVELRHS
Experimental: In brief, 15 mM HHL was dissolved in 100 mM Na-borate buffer (pH 8.3) supplemented with 300 mM NaCl. […] A mixture containing 75 μL of ACE solution and 75 μL of the sample with a 5000-Da MWCO membrane (Millipore, Burlington, MA, USA) was incubated at 37 °C for 10 min, to which was added 75 μL of HHL solution, and the mixture was incubated for a further 30 min. […] Finally, inhibition activity was calculated using the following formula.Inhibition activity (%) = [(Ec - Es)/(Ec - Eb)] × 100 where Ec is the absorbance with addition of the buffer instead of the test sample (control), Es is the absorbance when the sample was added to the reaction mixture (sample), and Eb is the absorbance when the stop solution was added before the reaction occurred (blank). […] All data presented in this paper are the average of three repeats or mean ± standard deviation (SD).

[6] = ACE-inhibitory peptides from pepsin hydrolysate of Porphyra yezoensis, read-out: IC50
[7] = peaks F7 to F10, converted from μM, read-out: IC50 (equivalent in mg/mL) (converted)
[8] = peptides of peaks F7 to F10 from PN-1G, read-out: IC50

Molecule: Leu-Arg-Tyr
IC50 [1, 6]: 5.06 µM

Molecule: Ala-Lys-Tyr-Ser-Tyr (AKYSY; printed: Ala-Lys-Tyr-Ser-Tyr)
IC50 [1, 6]: 1.52 µM

Molecule: Ile-Gln-Pro
IC50 ([1]; peptide from Alcalase hydrolysate, read-out: IC50): 5.77 µM | blood pressure-lowering effect [2]: same blood pressure-lowering effect as captopril

ACE Inhibitory (%) of peak F10 at peptide content 0.01 mg/mL [3]: 87.7% | IC50 of inhibition of ACE activity (hydrolysis of HHL to hippuric acid, RP-HPLC, 37 °C, pH 8.3) [4]: 1.11 μM
Molecule: Leu-Trp (peptide)

ACE Inhibitory (%) of peak F9 at peptide content 0.01 mg/mL [3]: 95.1% | IC50 of inhibition of ACE activity (hydrolysis of HHL to hippuric acid, RP-HPLC, 37 °C, pH 8.3) [4]: 0.5 μM
Molecule: Ile-Trp (peptide)

Molecule: VRYL (UniProt P04654 220-223, looked up, fragment)
IC50 ([1]; before hydrolysis with digestive enzymes): 9 µg/mL

ACE Inhibitory (%) of peak F7 at peptide content 0.01 mg/mL [3]: 54.3% | IC50 of inhibition of ACE activity (hydrolysis of HHL to hippuric acid, RP-HPLC, 37 °C, pH 8.3) [4]: 308 μM
Molecule: Trp-Val (peptide)

Molecule: Ile-Tyr
IC50 [1, 6]: 2.69 µM

Molecule: CC(C)[C@H](N)C(=O)N[C@@H](Cc1c[nH]c2ccccc12)C(=O)O [Peak F8, Val–Trp] (H-Val-Trp-OH)
IC50 ([5]; IC50 (equivalent in mg/mL), peaks F7 to F10, converted from μM): 0.593 µM | IC50 ([5]; IC50, peptides of peaks F7 to F10 from PN-1G): 0.58 ± 0.02 µM | ACE Inhibitory (%) [5]: 86.1%

ACE Inhibitory (%) of peak F8 at peptide content 0.01 mg/mL [3]: 86.1% | IC50 of inhibition of ACE activity (hydrolysis of HHL to hippuric acid, RP-HPLC, 37 °C, pH 8.3) [4]: 0.58 μM
Molecule: Val-Trp (peptide)

Molecule: Met-Lys-Tyr
IC50 [1, 6]: 7.26 µM

ACE Inhibitory (%) [5]: 95.1% | IC50 [5, 7]: 0.504 µM | IC50 [5, 8]: 0.5 ± 0.01 µM
Molecule: CC[C@H](C)[C@H](N)C(=O)N[C@@H](Cc1c[nH]c2ccccc12)C(=O)O [Peak F9, Ile–Trp]

ACE Inhibitory (%) [5]: 54.3% | IC50 [5, 7]: 308 µM | IC50 [5, 8]: 307.61 ± 0.01 µM
Molecule: CC(C)[C@H](NC(=O)[C@@H](N)Cc1c[nH]c2ccccc12)C(=O)O [Peak F7, Trp–Val] (H-Trp-Val-OH)

Molecule: Phe–Ala–Leu
IC50 ([1]; peptide from pepsin hydrolysate of C. vulgaris, read-out: IC50): 26.3 µM
